Data reported in ChEMBL document CHEMBL2034917, “Multifunctional mercapto-tacrine derivatives for treatment of age-related neurodegenerative diseases” (J Med Chem, 2012).
The source made the active and inactive calls. No cut-off for these calls is given here.

Key:
SH-SY5Y [1] = experiment: Neuroprotective activity in human SH-SY5Y cells assessed as protection against H2O2-induced oxidative stress at 10 uM incubated for 1 hr prior to H2O2-challenge measured after 12 hrs by MTT assay; assay type: functional
SH-SY5Y [2] = experiment: Neuroprotective activity in human SH-SY5Y cells assessed as protection against H2O2-induced oxidative stress at 30 uM incubated for 1 hr prior to H2O2-challenge measured after 12 hrs by MTT assay; assay type: functional
SH-SY5Y [3] = experiment: Neuroprotective activity in human SH-SY5Y cells assessed as protection against H2O2-induced oxidative stress incubated for 1 hr prior to H2O2-challenge measured after 12 hrs by MTT assay; assay type: functional, cell-based
Acetylcholinesterase = Acetylcholinesterase (Electrophorus electricus, UniProt O42275); experiment: Inhibition of electric eel acetylcholine esterase using […] as substrate incubated for 5 mins prior to substrate addition measured every 3 mins by Ellman's assay
SH-SY5Y [4] = experiment: Neuroprotective activity in human SH-SY5Y cells assessed as protection against H2O2-induced oxidative stress at 1 uM incubated for 1 hr prior to H2O2-challenge measured after 12 hrs by MTT assay; assay type: functional
SH-SY5Y [5] = experiment: Neuroprotective activity in human SH-SY5Y cells assessed as protection against H2O2-induced oxidative stress at 3 uM incubated for 1 hr prior to H2O2-challenge measured after 12 hrs by MTT assay; assay type: functional
Cholinesterase = Cholinesterase (Equus caballus, UniProt P81908)
Description: Inhibition of equine serum butyrylcholine esterase using butyrylcholine chloride as substrate incubated for 5 mins prior to substrate addition measured every 3 mins by Ellman's assay

Rattus norvegicus [6] = experiment: Hepatotoxicity in Sprague-Dawley rat assessed increase in aminotransferase level in serum at 6 umol/100g of body weight, ip up to 120 hrs; assay type: toxicity, organism-based; conditions: in vivo
Rattus norvegicus [7] = experiment: Hepatotoxicity in Sprague-Dawley rat assessed increase in alanine aminotransferase level in serum at 6 umol/100g of body weight, ip up to 120 hrs; assay type: toxicity, organism-based; conditions: in vivo
Hippocampus [8] = experiment: (§1) Neuroprotective activity in Sprague-Dawley rat hippocampal CA1 region assessed as enhancement of high frequency stimulation-induced long-term potentiation by measuring field excitatory postsynaptic potentials at 50 uM incubated for 5 mins prior to HFS-induction measured after 10 mins by electrophysiology assay (reference value: 133.7 +/- 3.6%); assay type: functional
[9] = target: Acetylcholinesterase (Electrophorus electricus) (UniProt O42275); experiment: Time dependent inhibition of electric eel acetylcholine esterase using […] as substrate incubated for 5 mins prior to substrate addition measured for 2 to 40 mins by Ellman's assay
[10] = target: Acetylcholinesterase (Electrophorus electricus) (UniProt O42275); experiment: Mixed type inhibition of electric eel acetylcholine esterase using […] as substrate by Lineweaver-Burk reciprocal plot analysis
Hippocampus [11] = experiment: as §1, with “potentials” for “potentials at 50 uM”, “136.3” for “133.7”, “5.3%)” for “3.6%)”; assay type: functional
Hippocampus [12] = experiment: as §1, with “134.3” for “133.7”, “3.9%)” for “3.6%)”; assay type: functional
Rattus norvegicus [13] = experiment: Neuroprotective activity in Sprague-Dawley rat assessed as enhancement of high frequency stimulation-induced long-term potentiation in hippocampus at 50 uM, icv after 3 hrs (reference value: 126 +/- 3.6%); assay type: functional

Chain of Cholinesterase (P81908 whole entry): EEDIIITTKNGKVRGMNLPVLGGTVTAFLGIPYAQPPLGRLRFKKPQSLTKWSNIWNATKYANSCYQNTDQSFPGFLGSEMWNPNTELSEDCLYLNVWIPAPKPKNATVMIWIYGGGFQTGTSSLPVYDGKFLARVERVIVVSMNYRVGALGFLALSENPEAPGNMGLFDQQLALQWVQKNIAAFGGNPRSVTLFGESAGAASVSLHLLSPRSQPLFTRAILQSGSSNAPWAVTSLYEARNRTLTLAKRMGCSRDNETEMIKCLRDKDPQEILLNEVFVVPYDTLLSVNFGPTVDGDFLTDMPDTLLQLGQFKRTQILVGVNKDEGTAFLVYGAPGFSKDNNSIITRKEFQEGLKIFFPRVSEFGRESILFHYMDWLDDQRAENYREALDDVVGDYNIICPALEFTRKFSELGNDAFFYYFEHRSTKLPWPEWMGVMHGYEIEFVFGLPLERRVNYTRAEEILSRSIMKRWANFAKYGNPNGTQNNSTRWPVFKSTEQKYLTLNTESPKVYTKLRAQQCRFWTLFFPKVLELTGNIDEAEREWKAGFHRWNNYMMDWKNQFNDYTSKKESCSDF
Chain of Acetylcholinesterase (O42275 whole entry): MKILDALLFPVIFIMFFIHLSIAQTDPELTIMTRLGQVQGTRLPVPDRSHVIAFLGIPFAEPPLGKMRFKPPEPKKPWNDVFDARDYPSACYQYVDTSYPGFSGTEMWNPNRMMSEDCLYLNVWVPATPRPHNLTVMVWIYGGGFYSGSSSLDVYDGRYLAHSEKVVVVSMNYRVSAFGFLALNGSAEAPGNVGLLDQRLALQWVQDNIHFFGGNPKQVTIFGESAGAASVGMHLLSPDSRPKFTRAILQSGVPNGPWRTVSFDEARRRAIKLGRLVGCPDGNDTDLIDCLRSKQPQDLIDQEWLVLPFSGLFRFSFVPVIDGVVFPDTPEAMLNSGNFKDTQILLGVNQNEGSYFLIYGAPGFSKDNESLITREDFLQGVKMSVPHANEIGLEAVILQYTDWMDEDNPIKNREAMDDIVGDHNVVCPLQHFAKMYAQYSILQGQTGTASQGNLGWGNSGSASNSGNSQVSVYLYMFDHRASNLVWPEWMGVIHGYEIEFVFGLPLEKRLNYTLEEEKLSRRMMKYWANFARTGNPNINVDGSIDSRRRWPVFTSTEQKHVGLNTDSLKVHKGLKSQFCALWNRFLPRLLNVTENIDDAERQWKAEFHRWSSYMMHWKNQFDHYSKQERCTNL
Chain of Acetylcholinesterase (Electrophorus electricus) (O42275 24-633 limits assumed): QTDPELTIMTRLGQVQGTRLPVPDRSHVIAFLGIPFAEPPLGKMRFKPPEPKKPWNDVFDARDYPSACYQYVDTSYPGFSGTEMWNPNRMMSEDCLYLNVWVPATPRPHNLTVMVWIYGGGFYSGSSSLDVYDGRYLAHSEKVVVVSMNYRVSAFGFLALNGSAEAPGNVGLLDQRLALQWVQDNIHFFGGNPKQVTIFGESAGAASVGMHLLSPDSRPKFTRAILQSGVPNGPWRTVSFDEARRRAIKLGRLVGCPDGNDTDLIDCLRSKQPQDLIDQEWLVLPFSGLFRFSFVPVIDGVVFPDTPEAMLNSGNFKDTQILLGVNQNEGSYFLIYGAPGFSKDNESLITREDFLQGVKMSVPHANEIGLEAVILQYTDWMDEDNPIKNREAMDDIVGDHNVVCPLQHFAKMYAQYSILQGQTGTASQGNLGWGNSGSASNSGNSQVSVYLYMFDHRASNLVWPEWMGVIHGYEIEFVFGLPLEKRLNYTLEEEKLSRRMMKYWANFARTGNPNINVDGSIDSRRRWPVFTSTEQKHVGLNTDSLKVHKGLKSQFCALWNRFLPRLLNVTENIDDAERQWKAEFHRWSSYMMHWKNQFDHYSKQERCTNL

SMILES	Activity (SH-SY5Y [1]) [%]	Activity (SH-SY5Y [2]) [%]	Activity (SH-SY5Y [3])	IC50 (Acetylcholinesterase) [nM]	Activity (SH-SY5Y [4]) [%]	Activity (SH-SY5Y [5]) [%]	IC50 (Cholinesterase) [nM]	Activity (Rattus norvegicus [6])	Activity (Rattus norvegicus [7])	Activity (Hippocampus [8]) [%]	inhibition [9]	inhibition [10]	Activity (Hippocampus [11]) [%]	Activity (Hippocampus [12]) [%]	Activity (Rattus norvegicus [13]) [%]
CC(=O)SCCC(=O)NCCCCNc1c2c(nc3ccccc13)CCCC2	43.6	56.5	Dose-dependent effect	7240	21.7	30.1	155	–	–	–	–	–	–	–	–
O=C(CCS)NCCCNc1c2c(nc3ccccc13)CCCC2	16.7	34	–	6030	45.9	22	182	Non-toxic	Non-toxic	160.8	–	–	–	–	–
CC(=O)SCCC(=O)NCCCCCCNc1c2c(nc3cc(Cl)ccc13)CCCC2	28.5	34	Dose-dependent effect	42.7	8.1	17.1	91.2	–	–	–	inactive	Active	–	–	–
Cc1c(C)c2c(c(C)c1O)CCC(C)(C(=O)O)O2 (stereo unspecified) [TROLOX]	44.2	59.1	–	–	–	–	–	–	–	–	–	–	–	–	–
CC(=O)SCCC(=O)NCCCNc1c2c(nc3ccccc13)CCCC2	38.2	50.6	Dose-dependent effect	1740	32.4	35.9	229	Non-toxic	Non-toxic	–	–	–	136.2	–	–
O=C(CCS)NCCCCCCNc1c2c(nc3cc(Cl)ccc13)CCCC2	24.5	37.8	–	178	52.3	27.2	178	–	–	–	–	–	–	157.1	149
O=C(CCS)NCCCCNc1c2c(nc3ccccc13)CCCC2	21.5	38.2	–	8320	23.8	5.8	129	–	–	–	–	–	–	–	–
